Assay results from ChEMBL document CHEMBL1126457, “Synthesis of novel targeted pro-prodrugs of anthracyclines potentially activated by a monoclonal antibody galactosidase conjugate (part 1)” (1992).

The molecules below were run on L1210 (assay: Compound was evaluated for cytotoxicity against L1210 murine leukemia cells).
Format: functional, Mus musculus

SMILES | Cytotoxicity [µg/mL]
COc1cccc2c1C(=O)c1c(O)c3c(c(O)c1C2=O)C[C@@](O)(C(C)=O)C[C@@H]3O[C@H]1C[C@@H](NC(=O)OCc2ccccc2O[C@H]2O[C@@H](CO)[C@H](O)[C@H](O)[C@@H]2O)[C@H](O)[C@H](C)O1 | >1
COc1cccc2c1C(=O)c1c(O)c3c(c(O)c1C2=O)C[C@@](O)(C(C)=O)C[C@@H]3O[C@H]1C[C@H](N)[C@H](O)[C@H](C)O1 [DAUNORUBICIN] | 0.02
COc1cccc2c1C(=O)c1c(O)c3c(c(O)c1C2=O)C[C@@](O)(C(C)=O)C[C@@H]3O[C@H]1C[C@@H](NC(=O)OCc2ccc(O[C@H]3O[C@@H](CO)[C@H](O)[C@H](O)[C@@H]3O)cc2)[C@H](O)[C@H](C)O1 | >1
